Test results published in ChEMBL document CHEMBL4421736, “INHIBITORS OF SARM1 NADase ACTIVITY AND USES THEREOF” (2018).
The source made the active and inactive calls. The rule behind the calls is not given here.

Legend:
Type in all cases: cell-based
[1] = molecular target: T1, NAD(+) hydrolase SARM1 (Homo sapiens) (UniProt Q6SZW1); assay: Inhibition of StrepTag-tagged human SARM1 TIR (561 to 724 residues) expressed in HEK293T cells assessed as reduction in NADase activity at 5 uM in presence of NAD+ incubated for 60 mins by HPLC analysis
T1 sequence (whole entry): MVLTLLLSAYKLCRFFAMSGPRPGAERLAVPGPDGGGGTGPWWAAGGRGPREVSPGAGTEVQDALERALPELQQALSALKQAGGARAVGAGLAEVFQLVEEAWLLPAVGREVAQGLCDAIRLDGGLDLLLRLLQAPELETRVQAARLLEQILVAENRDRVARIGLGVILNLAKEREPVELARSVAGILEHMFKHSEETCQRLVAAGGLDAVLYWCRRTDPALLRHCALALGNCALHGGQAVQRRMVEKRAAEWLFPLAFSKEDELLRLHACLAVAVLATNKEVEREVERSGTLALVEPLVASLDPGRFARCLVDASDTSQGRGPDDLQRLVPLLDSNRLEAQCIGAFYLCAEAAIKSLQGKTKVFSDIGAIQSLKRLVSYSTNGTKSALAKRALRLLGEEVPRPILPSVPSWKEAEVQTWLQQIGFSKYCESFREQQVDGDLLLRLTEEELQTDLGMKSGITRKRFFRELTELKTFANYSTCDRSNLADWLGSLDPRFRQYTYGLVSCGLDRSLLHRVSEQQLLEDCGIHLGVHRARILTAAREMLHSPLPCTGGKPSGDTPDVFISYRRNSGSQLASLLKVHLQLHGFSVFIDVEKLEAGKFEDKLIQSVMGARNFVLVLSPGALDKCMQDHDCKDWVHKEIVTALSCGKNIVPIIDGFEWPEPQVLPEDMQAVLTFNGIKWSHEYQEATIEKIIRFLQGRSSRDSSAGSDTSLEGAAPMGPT

[2] = molecular target: T2, NAD(+) hydrolase SARM1 (Mus musculus) (UniProt Q6PDS3); assay: Inhibition of SARM1 in CD1 mouse DRG cells assessed as inhibition of axon degeneration by measuring reduction in NAD+ consumption rate at 5 uM added 30 mins prior to D4-Nam addition and measured 4 hrs post D4-Nam addition by LC-MS/MS analysis
T2 sequence (whole entry): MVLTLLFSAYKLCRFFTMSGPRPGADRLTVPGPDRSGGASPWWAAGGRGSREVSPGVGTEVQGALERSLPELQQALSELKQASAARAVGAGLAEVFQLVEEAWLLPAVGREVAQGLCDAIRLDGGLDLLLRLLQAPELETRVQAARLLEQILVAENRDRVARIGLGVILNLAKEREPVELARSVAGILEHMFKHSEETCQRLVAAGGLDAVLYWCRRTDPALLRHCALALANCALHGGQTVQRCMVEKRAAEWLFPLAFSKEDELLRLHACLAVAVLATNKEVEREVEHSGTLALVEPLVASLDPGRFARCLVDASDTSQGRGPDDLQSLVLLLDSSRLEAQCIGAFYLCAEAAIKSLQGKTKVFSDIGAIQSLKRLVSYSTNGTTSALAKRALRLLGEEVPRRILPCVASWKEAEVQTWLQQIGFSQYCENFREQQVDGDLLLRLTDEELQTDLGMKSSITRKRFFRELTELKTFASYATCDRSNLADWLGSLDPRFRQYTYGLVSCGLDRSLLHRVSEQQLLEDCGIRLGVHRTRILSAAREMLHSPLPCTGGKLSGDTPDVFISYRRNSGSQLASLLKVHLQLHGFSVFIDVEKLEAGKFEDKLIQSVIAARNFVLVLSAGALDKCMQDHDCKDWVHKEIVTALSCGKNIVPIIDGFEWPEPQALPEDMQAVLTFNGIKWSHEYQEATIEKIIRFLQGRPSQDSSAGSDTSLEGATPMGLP

[3] = molecular target: T1, NAD(+) hydrolase SARM1 (Homo sapiens); assay: Inhibition of StrepTag-tagged human SARM1 TIR (561 to 724 residues) expressed in HEK293T cells assessed as reduction in NADase activity at 5 uM in presence of NAD+ incubated for 60 mins by LC-MS/MS analysis
[4] = molecular target: T1, NAD(+) hydrolase SARM1 (Homo sapiens); assay: Inhibition of StrepTag-tagged human SARM1 TIR (561 to 724 residues) expressed in HEK293T cells in presence of NAD+ incubated for 60 mins by chemiluminescence based NAD+ Glo assay
[5] = molecular target: T1, NAD(+) hydrolase SARM1 (Homo sapiens); assay: Substrate activity at StrepTag-tagged human SARM1 TIR (561 to 724 residues) expressed in HEK293T cells assessed as increase in NADase activity in presence of NAD+ incubated for 60 mins by HPLC analysis
[6] = molecular target: T1, NAD(+) hydrolase SARM1 (Homo sapiens); assay: Inhibition of StrepTag-tagged human SARM1 TIR (561 to 724 residues) expressed in NRK1-HEK293T cells assessed as reduction in NADase activity by measuring ADPR production at 150 uM pre-incubated up to 120 mins before NAD+ addition and further incubated for 60 mins by HPLC analysis; design: scale not given: the % may be the effect or the level left
[7] = molecular target: T1, NAD(+) hydrolase SARM1 (Homo sapiens); assay: Inhibition of StrepTag-tagged human SARM1 TIR (561 to 724 residues) expressed in NRK1-HEK293T cells assessed as reduction in NADase activity by measuring NAD consumption at 150 uM pre-incubated up to 120 mins before NAD+ addition and further incubated for 60 mins by HPLC analysis relative to control; design: scale not given: the % may be the effect or the level left
[8] = molecular target: T2, NAD(+) hydrolase SARM1 (Mus musculus); assay: Inhibition of SARM1 in CD1 mouse DRG cells assessed as inhibition of axon degeneration measured during 6 to 24 hrs by drop culture assay
[9] = molecular target: T2, NAD(+) hydrolase SARM1 (Mus musculus); assay: Inhibition of SARM1 in CD1 mouse DRG cells assessed as inhibition of axon degeneration by measuring reduction in NAD+ consumption rate added 30 mins prior to D4-Nam addition and measured 4 hrs post D4-Nam addition by LC-MS/MS analysis
[10] = molecular target: T2, NAD(+) hydrolase SARM1 (Mus musculus); assay: Inhibition of SARM1 in CD1 mouse DRG cells assessed as inhibition of axon degeneration measured during 6 to 24 hrs by SEM micrography
[11] = molecular target: T1, NAD(+) hydrolase SARM1 (Homo sapiens); assay: Substrate activity at StrepTag-tagged human SARM1 TIR (561 to 724 residues) expressed in HEK293T cells assessed as increase in NADase activity at 100 uM in presence of NAD+ incubated for 60 mins by HPLC analysis
[12] = molecular target: T1, NAD(+) hydrolase SARM1 (Homo sapiens); assay: Inhibition of StrepTag-tagged human SARM1 TIR (561 to 724 residues) expressed in HEK293T cells assessed as reduction in NADase activity at 1 mM in presence of NAD+ incubated for 60 mins by HPLC analysis

COc1ccnc(C[S+]([O-])c2nc3cc(OC(F)F)ccc3[nH]2)c1OC (stereo unspecified)
inhibition [1]: Active

Cc1cccc2c1c1ccc3c(c1n2C)C(=O)C=CC3=O
inhibition [2]: Active

CN(C)c1n/c(=N/c2cccc(Cl)c2)ss1
inhibition [2]: Active
inhibition [3]: Active
inhibition [4]: Active

NC(=S)c1cccnc1
Activity [5]: inactive

CCOc1ccc(NC(=O)C2CCCN(C)C2)cc1 (stereo unspecified)
inhibition [2]: Active

Cc1ccc2c(c1)c1ccc3c(c1n2C)C(=O)C=CC3=O
inhibition [2]: Active

Cc1cc(O)c(-c2cc(O)c(C)cc2O)cc1O
inhibition [2]: Active

CCOC(=O)/C(C#N)=C1\SS/C(=C(/C#N)C(=O)OCC)S1
inhibition [2]: Active

COCCCOc1ccnc(C[S+]([O-])c2nc3ccccc3[nH]2)c1C (stereo unspecified)
inhibition [1]: Active

Cn1c2ccccc2c2ccc3c(c21)C(=O)C=CC3=O
inhibition [2]: Active

O=C(c1ccccc1)C1C(c2ccccc2)C1[N+](=O)[O-] (stereo unspecified)
inhibition [2]: Active

CCN(CC)c1ccc(C=C2C(=O)NC(=S)NC2=O)cc1
inhibition [2]: Active

Cc1c(OCC(F)(F)F)ccnc1C[S@@+]([O-])c1nc2ccccc2[nH]1
inhibition [1]: Active

O=Cc1cccnc1
Activity [5]: inactive

COc1ccc2[nH]c([S+]([O-])Cc3ncc(C)c(OC)c3C)nc2c1 (stereo unspecified)
inhibition [1]: Active

COc1cnc2[nH]c([S+]([O-])Cc3ncc(C)c(OC)c3C)nc2c1 (stereo unspecified)
Activity [6]: 50 to 75%
Activity [7]: > 75%

CN(C)c1n/c(=N/Cc2ccco2)ss1
inhibition [2]: Active
inhibition [8]: Active
inhibition [3]: Active
inhibition [9]: Dose-dependent effect
inhibition [10]: Active

Cc1c(OCC(F)(F)F)ccnc1CSc1nc2ccccc2[nH]1
Activity [6]: > 75%
Activity [7]: > 75%

COc1ccc2[nH]c([S+]([O-])Cc3ncc(C)c(OC)c3C)nc2n1 (stereo unspecified)
inhibition [1]: Active
Activity [6]: < 50%
Activity [7]: 50 to 75%

COc1ccc2c(c1)nc([S+]([O-])Cc1ncc(C)c(OC)c1C)n2C (stereo unspecified)
Activity [6]: > 75%
Activity [7]: > 75%

Oc1cc(CNC2CCCCC2)c(O)cc1CNC1CCCCC1
inhibition [2]: Active

CC1(C)CC[C@]2(C(=O)n3ccnc3)CC[C@]3(C)[C@H](C(=O)C=C4[C@@]5(C)C=C(C#N)C(=O)C(C)(C)[C@@H]5CC[C@]43C)[C@@H]2C1
inhibition [2]: Active

O=[N+]([O-])c1ccc(Sc2cccc[n+]2[O-])c2nonc12
inhibition [2]: Active

Cc1c(OCC(F)(F)F)ccnc1CS(=O)(=O)c1nc2ccccc2[nH]1
Activity [6]: > 75%
Activity [7]: > 75%

NC(=O)C1=CN([C@@H]2O[C@H](COP(=O)(O)OP(=O)(O)OC[C@H]3O[C@@H](n4cnc5c(=O)[nH]cnc54)[C@H](O)[C@@H]3O)[C@@H](O)[C@H]2O)CC=C1
Activity [5]: Active

NC(=O)c1ccccc1
Activity [5]: inactive

NC(=O)C1=CN([C@@H]2O[C@H](COP(=O)(O)OP(=O)(O)OC[C@H]3O[C@@H](n4cnc5c(N)ncnc54)[C@H](OP(=O)(O)O)[C@@H]3O)[C@@H](O)[C@H]2O)C=CC1
Activity [5]: Active
Activity [11]: Active

NC(=O)c1ccc(N)nc1
Activity [5]: inactive

COC(=O)CC1(C(=O)OC)Nc2cc(Cl)c(Cl)cc2S(=O)(=O)N1O (stereo unspecified)
inhibition [2]: Active

O=C1NC(=O)C(=Cc2csc3ccccc23)C(=O)N1
inhibition [2]: Active

NC(=O)C1CCCc2c1[nH]c1ccc(Cl)cc21 (stereo unspecified)
inhibition [12]: Active
Activity [5]: inactive

Cc1cnc(C[S@@+]([O-])c2nc3ccccc3[nH]2)c(C)c1OCC(F)(F)F
Activity [6]: < 50%
Activity [7]: > 75%

O=C1N=C(c2ccccc2)C(c2ccccc2)N1 (stereo unspecified)
inhibition [2]: Active

CC1=C(O)C(=O)C=C2C1=CC=C1[C@@]2(C)CC[C@@]2(C)[C@@H]3C[C@](C)(C(=O)O)CC[C@]3(C)CC[C@]12C
inhibition [2]: Active

COc1ccc2c(c1)c1ccc3c(c1n2C)C(=O)C=CC3=O
inhibition [2]: Active

Cc1c(OCC(F)(F)F)ccnc1C[S+]([O-])c1nc2ccccc2[nH]1 (stereo unspecified)
inhibition [1]: Active

CC(=O)c1cccnc1
Activity [5]: inactive

NC(=O)C1=CN([C@@H]2O[C@H](COP(=O)(O)OP(=O)(O)OC[C@H]3O[C@@H](n4cnc5c4ncn4ccnc54)[C@H](O)[C@@H]3O)[C@@H](O)[C@H]2O)CC=C1
inhibition [12]: Active
Activity [5]: inactive

O=C1NC(=O)C(=Cc2ccc3ccccc3c2)C(=O)N1
inhibition [2]: Active

Cc1ccc([S+]([O-])c2ccc([N+](=O)[O-])c3nonc23)cc1 (stereo unspecified)
inhibition [2]: Active
